Patent US20220281848A1, “PYRAZOLE-SUBSTITUTED PYRROLIDINONES AS HERBICIDES” (FMC Corporation, priority 2019, published 2022)

Tests used:
Format in all cases: in vivo
Settings in all cases: 19 to 21 days
soybean (Glycine max) = test: Test B preemergence, soybean
Text: (§1) Seeds of plant species selected from blackgrass (Alopecurus myosuroides), Italian ryegrass (Lolium multiflorum), wheat, winter (winter wheat, Triticum aestivum), corn (Zea mays), large (Lg) crabgrass (Digitaria sanguinalis), giant foxtail (Setaria faberi), johnsongrass (Sorghum halepense), ragweed (common ragweed, Ambrosia elatior), soybean (Glycine max), barnyardgrass (Echinochloa crus-galli), waterhemp (common waterhemp, Amaranthus rudis), palmer pigweed (Amaranthus palmeri), and surinam grass (Brachiaria decumbens), were planted into a silt loam soil and treated preemergence with test chemicals formulated in a non-phytotoxic solvent mixture which included a surfactant.
(§2) Treated plants and controls were maintained in a greenhouse for 19 to 21 days, after which time all species were compared to controls and visually evaluated. Plant response ratings, summarized in Table B, are based on a scale of 0 to 100 where 0 is no effect and 100 is complete control.

[1] = test system: palmer pigweed (Amaranthus palmeri); test: Test C preemergence, palmer pigweed
Text: Seeds of plant species selected from corn (Zea mays), soybean (Glycine max), velvetleaf (Abutilon theophrasti), palmer pigweed (Amaranthus palmeri), waterhemp (common waterhemp, Amaranthus rudis), surinam grass (Brachiaria decumbens), large (Lg) crabgrass (Digitaria sanguinalis), fall panicum (Panicum dichotomiflorum), giant foxtail (Setaria faberi), ragweed (common ragweed, Ambrosia elatior), barnyardgrass (Echinochloa crus-galli), E. Black Nightshade (Solanum ptycanthum), and horseweed (Conyza canadensis), were planted into a silt loam soil and treated preemergence with test chemicals formulated in a non-phytotoxic solvent mixture which included a surfactant.
Treated plants and controls were maintained in a greenhouse for 19 to 21 days, after which time all species were compared to controls and visually evaluated. Plant response ratings, summarized in Table C, are based on a scale of 0 to 100 where 0 is no effect and 100 is complete control.

[2] = test system: johnsongrass (Sorghum halepense); test: Test B preemergence, johnsongrass
Text: as §1, §2

[3] = test system: large (Lg) crabgrass (Digitaria sanguinalis); test: Test B preemergence, large crabgrass
Text: as §1, §2

CN1C[C@H](c2cc(C(F)(F)F)n(C)n2)[C@@H](C(=O)Nc2cccc(F)c2F)C1=O [Compound 13, (3S,4R)—N-(2,3-difluorophenyl)-1-methyl-4-[1-methyl-5-(trifluoromethyl)-1H-pyrazol-3-yl]-2-oxo-3-pyrrolidinecarboxamide]
Plant response rating (0 no effect, 100 complete control) Soybean (soybean (Glycine max); 16 g ai/ha Preemergence): 0 | Plant response rating (0 no effect, 100 complete control) Soybean (soybean (Glycine max); 31 g ai/ha Preemergence): 0 | Plant response rating (0 no effect, 100 complete control) Soybean (soybean (Glycine max); 62 g ai/ha Preemergence): 0 | Plant response rating (0 no effect, 100 complete control) Soybean (soybean (Glycine max); 125 g ai/ha Preemergence): 8 | Plant response rating (0 no effect, 100 complete control) Pigweed, Palmer ([1]; 4 g ai/ha Preemergence): 0 | Plant response rating (0 no effect, 100 complete control) Pigweed, Palmer ([1]; 8 g ai/ha Preemergence): 0 | Plant response rating (0 no effect, 100 complete control) Pigweed, Palmer ([1]; 16 g ai/ha Preemergence): 0 | Plant response rating (0 no effect, 100 complete control) Pigweed, Palmer ([1]; 31 g ai/ha Preemergence): 0 | Plant response rating (0 no effect, 100 complete control) Pigweed, Palmer ([1]; 62 g ai/ha Preemergence): 0 | Plant response rating (0 no effect, 100 complete control) Pigweed, Palmer ([1]; 125 g ai/ha Preemergence): 28 | Plant response rating (0 no effect, 100 complete control) Johnsongrass ([2]; 16 g ai/ha Preemergence): 0 | Plant response rating (0 no effect, 100 complete control) Johnsongrass ([2]; 31 g ai/ha Preemergence): 8 | Plant response rating (0 no effect, 100 complete control) Johnsongrass ([2]; 62 g ai/ha Preemergence): 15 | Plant response rating (0 no effect, 100 complete control) Johnsongrass ([2]; 125 g ai/ha Preemergence): 55 | Plant response rating (0 no effect, 100 complete control) Crabgrass, Large ([3]; 16 g ai/ha Preemergence): 100 | Plant response rating (0 no effect, 100 complete control) Crabgrass, Large ([3]; 31 g ai/ha Preemergence): 100 | Plant response rating (0 no effect, 100 complete control) Crabgrass, Large ([3]; 62 g ai/ha Preemergence): 100 | Plant response rating (0 no effect, 100 complete control) Crabgrass, Large ([3]; 125 g ai/ha Preemergence): 100
